# Test results: ChEMBL document CHEMBL1201862, “PubChem BioAssay data set” (2004)
# Active and inactive are the calls of the source.
# How the values were obtained:
# SN12K1 = assay: cells; assay type: functional; settings: Homo sapiens
# P388 = assay: cells; assay type: functional; settings: Mus musculus
# P388/ADR = assay: cells; assay type: functional; settings: Mus musculus
# [1] = alpha-synuclein stem-loop luciferase translation blockers – H4 neuroglioma cells, luminescence, confirmation (AID 1988); assay type: functional, cell-based
# [2] = HEK-293T viability loss after treatment – luminescence, T-cell screen hits, cytotoxicity control for TCR NF-kB inhibitor project, dose response (AID 489026); assay type: functional, cell-based;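 further: cells exposed to compound about 14 hours before the viability readout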
# [3] = Luminescence Cell-Based Dose Response HTS to Identify Inhibitors of 5'UTR Stem-Loop Driven Prion Protein mRNA Translation in H4 Neuroglioblastoma Cells. [Related pubchem assays: 1827 (Project Summary), 1813 (Primary HTS)]; assay type: functional
# [4] = luciferase reporter signal suppression in cells – H4 neuroglioma cells, luminescence, dose response (AID 1990); assay type: functional, cell-based
# [5] = biological target: T1, Calpain-2 catalytic subunit (Sus scrofa, UniProt P43367); assay: m-calpain protease blockers, concentration series – biochemical, fluorogenic peptide substrate, dose response (AID 1420); assay type: functional
# T1 sequence (P43367 whole entry): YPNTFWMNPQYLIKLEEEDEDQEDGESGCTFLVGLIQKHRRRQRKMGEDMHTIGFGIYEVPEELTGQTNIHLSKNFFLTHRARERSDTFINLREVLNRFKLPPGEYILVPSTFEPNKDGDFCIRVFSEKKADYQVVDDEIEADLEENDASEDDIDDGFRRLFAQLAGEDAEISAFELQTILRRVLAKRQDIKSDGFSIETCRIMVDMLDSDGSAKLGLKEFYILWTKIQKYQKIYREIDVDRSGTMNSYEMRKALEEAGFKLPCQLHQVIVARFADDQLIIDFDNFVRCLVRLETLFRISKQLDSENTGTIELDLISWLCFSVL
# INS1 = assay: INS-1E survival protection against cytokine death – cell-based, luminescence, retest, dose response (AID 449756); assay type: functional; settings: Rattus norvegicus, INS1;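 further: cell death triggered by IL-1 beta plus TNF-alpha plus IFN-gamma mixture; protective hits raise ATP signal compared with cytokine alone wells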
# Vero = assay: cells; assay type: functional; settings: Chlorocebus sabaeus
# [6] = biological target: T2, Heat shock factor protein 1 (Mus musculus, UniProt P38532); assay: enhancement of HSF1-driven luciferase signal – cell-based, NIH3T3, luminescence, dose retest, confirmation (AID 435004); assay type: functional;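 further: stress induced by proteasome inhibitor MG132 added 30 min after compound; luciferase reporter driven by HSF1 response element in NIH3T3 cells; actives raise luminescence as potentiators of the MG132 stress response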
# T2 sequence (P38532 whole entry): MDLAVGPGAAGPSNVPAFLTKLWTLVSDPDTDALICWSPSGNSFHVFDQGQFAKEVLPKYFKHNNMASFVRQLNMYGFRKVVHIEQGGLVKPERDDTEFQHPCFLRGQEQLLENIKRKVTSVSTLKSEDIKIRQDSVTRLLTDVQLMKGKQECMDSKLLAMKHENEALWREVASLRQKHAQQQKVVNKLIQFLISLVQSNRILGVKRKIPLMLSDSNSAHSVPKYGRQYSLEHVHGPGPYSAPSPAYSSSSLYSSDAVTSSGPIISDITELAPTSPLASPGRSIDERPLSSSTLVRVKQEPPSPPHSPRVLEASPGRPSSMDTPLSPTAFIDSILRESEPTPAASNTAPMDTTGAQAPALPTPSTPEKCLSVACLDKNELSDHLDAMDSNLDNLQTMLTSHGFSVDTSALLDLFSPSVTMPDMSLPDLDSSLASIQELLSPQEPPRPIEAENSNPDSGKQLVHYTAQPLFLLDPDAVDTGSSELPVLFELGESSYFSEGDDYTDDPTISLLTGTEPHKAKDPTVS
# Cytochrome P450 2C9 = Cytochrome P450 2C9 (Homo sapiens, UniProt P11712)
# Cytochrome P450 1A2 = biological target: T3, Cytochrome P450 1A2 (Homo sapiens, UniProt P05177);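 further: PubChem cytochrome P450 panel assay, CYP1A2 panel member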
# T3 sequence (P05177 whole entry): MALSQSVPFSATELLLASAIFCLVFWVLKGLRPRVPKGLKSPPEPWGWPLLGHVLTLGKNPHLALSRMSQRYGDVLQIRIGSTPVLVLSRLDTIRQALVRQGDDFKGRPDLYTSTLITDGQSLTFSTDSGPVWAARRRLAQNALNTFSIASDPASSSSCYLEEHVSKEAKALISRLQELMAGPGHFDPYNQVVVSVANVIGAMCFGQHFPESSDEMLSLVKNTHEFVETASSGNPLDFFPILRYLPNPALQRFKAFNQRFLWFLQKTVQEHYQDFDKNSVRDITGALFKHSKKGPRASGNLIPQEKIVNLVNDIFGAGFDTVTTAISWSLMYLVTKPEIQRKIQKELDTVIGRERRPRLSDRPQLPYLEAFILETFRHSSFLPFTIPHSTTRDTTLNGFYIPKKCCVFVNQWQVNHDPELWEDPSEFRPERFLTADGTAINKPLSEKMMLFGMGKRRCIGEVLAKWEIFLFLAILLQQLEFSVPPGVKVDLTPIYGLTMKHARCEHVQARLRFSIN
# Cytochrome P450 2C19 = Cytochrome P450 2C19 (Homo sapiens, UniProt P33261); assay: Cytochrome panel assay with activity outcomes. Panel member name: p450-cyp2c19 Compounds with AC50 equal or less than 10 uM are considered active; assay type: functional; settings: read-out: AC50
# Cytochrome P450 3A4 = Cytochrome P450 3A4 (Homo sapiens, UniProt P08684);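 further: CYP3A4 tested as one member of a cytochrome P450 panel screen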
# [7] = biological target: T4, Probable nicotinate-nucleotide adenylyltransferase (Staphylococcus aureus (strain N315), UniProt P65502); assay type: functional, Staphylococcus aureus subsp. aureus N315;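 on IC50 Mean: confirmatory dose-response retesting of NadD inhibitor hits first found in an ultra-high-throughput screen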
# [8] = biological target: T4, Probable nicotinate-nucleotide adenylyltransferase; assay type: functional, Staphylococcus aureus subsp. aureus N315; settings: read-out: IC50_Mean
# Paired box protein Pax-8 = Paired box protein Pax-8 (Homo sapiens, UniProt Q06710); assay: PAX8 transcriptional activity inhibition in RMG-I – RMG-I cells, luciferase, cherry-pick, dose response (AID 687027); assay type: functional, cell-based;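 further: luciferase reporter driven by Pax8 target thyroperoxidase promoter measured by SteadyGlo luminescence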
# [9] = Luminescence Cell-Based Dose Retest to Confirm Inhibitors of Cancer Stem Cells. [Related pubchem assays (depositor defined):AID2717, AID2721]; assay type: functional; settings: Homo sapiens
# [10] = viability of PTEN-deleted HCT116 cells – cell-based, HCT116 PTEN knockout, dose response (AID 1047); assay type: functional;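 further: HCT116 colon tumor cells with PTEN knocked out; cells exposed to compound for 60 hours before readout; potency for loss of cell viability measured by luminescence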
# [11] = viability of HCT116 lacking mutant beta-catenin – cell-based, human colon tumor, dose response (AID 1045); assay type: functional;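 further: HCT116 colon tumor cells with beta catenin knocked out; cells exposed to compound for 60 hours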
# [12] = tested on: Streptococcus sp. 'group A'; assay: Streptococcus pyogenes SK(-)GAS viability under kanamycin – luminescence, BacTiterGlo, confirmation, counter-screen for streptokinase expression inhibitor project, dose response (AID 1900); assay type: functional, organism-based
# Streptococcus = assay: GAS UMAA2166 growth inhibition – luminescence, BacTiterGlo, counter-screen for streptokinase expression inhibitor project, dose response (AID 1915); assay type: functional, organism-based;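 further: potency for reduction of bacterial viability or growth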
# [13] = biological target: FAD-linked sulfhydryl oxidase ALR (Homo sapiens, UniProt P55789); assay: ALR-catalysed DTT oxidation blockers – biochemical, H2O2 detection, luminescence, cherry-pick, dose response (AID 493248)
# Cytochrome P450 2D6 = Cytochrome P450 2D6 (Homo sapiens, UniProt P10635);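 further: CYP2D6 member of a cytochrome P450 panel assay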
# Chain of Cytochrome P450 2D6 (P10635 whole entry): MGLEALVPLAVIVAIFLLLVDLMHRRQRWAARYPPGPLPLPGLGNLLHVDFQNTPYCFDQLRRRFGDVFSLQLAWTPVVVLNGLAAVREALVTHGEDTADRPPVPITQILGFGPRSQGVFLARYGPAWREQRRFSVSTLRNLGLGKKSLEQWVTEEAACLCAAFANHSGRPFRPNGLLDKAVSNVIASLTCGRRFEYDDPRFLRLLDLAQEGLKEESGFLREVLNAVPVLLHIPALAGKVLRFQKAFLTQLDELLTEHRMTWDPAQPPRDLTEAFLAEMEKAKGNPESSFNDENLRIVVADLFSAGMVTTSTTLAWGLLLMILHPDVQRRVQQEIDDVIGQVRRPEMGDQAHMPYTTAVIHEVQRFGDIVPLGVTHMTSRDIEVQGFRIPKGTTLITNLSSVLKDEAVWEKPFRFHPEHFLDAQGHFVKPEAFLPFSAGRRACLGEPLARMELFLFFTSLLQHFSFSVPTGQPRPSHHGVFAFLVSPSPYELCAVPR
# Chain of Cytochrome P450 2C9 (P11712 whole entry): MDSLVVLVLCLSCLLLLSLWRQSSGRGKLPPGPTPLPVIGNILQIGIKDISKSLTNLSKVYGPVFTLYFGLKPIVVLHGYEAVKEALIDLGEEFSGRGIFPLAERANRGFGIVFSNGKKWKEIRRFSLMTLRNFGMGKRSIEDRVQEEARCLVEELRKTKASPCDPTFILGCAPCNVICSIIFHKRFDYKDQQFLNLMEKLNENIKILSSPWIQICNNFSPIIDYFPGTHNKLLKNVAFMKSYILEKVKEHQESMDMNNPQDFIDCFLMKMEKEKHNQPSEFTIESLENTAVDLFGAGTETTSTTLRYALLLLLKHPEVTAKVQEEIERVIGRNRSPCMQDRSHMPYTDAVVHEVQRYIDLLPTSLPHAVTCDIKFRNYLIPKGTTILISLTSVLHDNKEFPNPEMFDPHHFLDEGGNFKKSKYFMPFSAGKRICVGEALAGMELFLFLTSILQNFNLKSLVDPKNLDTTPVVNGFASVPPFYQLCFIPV
# T4 sequence (P65502 whole entry): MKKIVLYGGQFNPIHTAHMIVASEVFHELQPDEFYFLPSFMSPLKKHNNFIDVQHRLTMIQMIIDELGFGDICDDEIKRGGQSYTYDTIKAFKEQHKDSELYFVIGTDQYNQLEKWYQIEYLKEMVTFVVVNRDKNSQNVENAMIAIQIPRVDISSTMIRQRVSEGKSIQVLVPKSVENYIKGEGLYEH
# Chain of Cytochrome P450 2C19 (P33261 whole entry): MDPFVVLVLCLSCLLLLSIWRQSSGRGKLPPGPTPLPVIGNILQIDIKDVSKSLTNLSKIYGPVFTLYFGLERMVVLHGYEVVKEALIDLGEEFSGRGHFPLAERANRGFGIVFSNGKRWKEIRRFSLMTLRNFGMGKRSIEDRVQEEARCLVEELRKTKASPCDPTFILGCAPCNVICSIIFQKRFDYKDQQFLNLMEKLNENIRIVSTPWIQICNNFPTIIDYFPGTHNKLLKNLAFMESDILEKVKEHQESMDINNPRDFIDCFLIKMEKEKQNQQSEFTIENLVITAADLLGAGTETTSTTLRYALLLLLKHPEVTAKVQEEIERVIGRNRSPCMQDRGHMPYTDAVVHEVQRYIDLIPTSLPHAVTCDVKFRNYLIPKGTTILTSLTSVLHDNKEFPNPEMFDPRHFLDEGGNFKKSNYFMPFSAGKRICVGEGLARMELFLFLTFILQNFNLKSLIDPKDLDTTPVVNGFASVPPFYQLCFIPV
# Chain of Paired box protein Pax-8 (Q06710 whole entry): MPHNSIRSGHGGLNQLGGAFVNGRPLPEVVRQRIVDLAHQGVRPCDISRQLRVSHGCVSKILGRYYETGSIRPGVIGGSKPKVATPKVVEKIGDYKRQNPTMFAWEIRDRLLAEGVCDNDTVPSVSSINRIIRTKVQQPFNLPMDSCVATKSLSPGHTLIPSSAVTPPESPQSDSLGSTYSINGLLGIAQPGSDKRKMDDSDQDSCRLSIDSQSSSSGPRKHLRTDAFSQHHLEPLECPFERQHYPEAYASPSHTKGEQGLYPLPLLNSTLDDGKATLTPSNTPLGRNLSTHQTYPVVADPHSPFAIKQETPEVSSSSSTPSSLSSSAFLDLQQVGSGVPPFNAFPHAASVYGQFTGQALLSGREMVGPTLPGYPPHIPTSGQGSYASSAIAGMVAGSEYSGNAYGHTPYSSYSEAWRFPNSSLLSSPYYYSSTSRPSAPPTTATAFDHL
# Chain of FAD-linked sulfhydryl oxidase ALR (P55789 whole entry): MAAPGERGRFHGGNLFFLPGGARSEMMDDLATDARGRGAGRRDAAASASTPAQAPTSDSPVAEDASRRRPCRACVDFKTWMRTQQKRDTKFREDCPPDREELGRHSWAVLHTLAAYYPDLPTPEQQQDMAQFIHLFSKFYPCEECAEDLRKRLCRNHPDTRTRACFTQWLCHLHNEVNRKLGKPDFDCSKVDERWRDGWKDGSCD
# Chain of Cytochrome P450 3A4 (P08684 whole entry): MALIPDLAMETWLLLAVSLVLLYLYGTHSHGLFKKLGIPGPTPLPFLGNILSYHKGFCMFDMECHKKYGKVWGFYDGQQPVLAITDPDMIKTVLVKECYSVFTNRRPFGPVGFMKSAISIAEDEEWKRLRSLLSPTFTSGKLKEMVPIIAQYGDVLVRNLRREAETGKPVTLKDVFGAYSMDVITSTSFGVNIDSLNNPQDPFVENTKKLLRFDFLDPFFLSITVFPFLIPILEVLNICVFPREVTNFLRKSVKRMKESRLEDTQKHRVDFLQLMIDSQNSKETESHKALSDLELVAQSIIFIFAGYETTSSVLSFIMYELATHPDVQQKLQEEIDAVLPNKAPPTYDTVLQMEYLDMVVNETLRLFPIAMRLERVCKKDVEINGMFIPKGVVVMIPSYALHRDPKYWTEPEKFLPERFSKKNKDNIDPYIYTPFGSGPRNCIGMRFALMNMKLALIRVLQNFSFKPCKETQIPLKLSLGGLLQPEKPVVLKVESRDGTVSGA
smiles,measurement,setting,value
CSc1cc(=O)n2c3ccccc3c3ccnc1c32,GI50,SN12K1,81.5 µM (inactive)
same,GI50,P388,> 100 µM (inactive)
same,GI50,P388/ADR,> 100 µM (inactive)
COc1cc(Cn2c(-c3nonc3N)nc3ccccc32)ccc1C,EC50,[1],7.81 µM (active)
same,IC50,[2],> 80 µM (inactive)
same,EC50,[3],10.3 µM (active)
same,EC50,[4],9.66 µM (inconclusive)
C[S+]([O-])c1ccccc1-c1nc(-c2cccc(Cl)c2)no1 (stereo unspecified),IC50,[5],> 50 µM (not active)
C[C@@H]1C[C@]2(C[C@@H](C)[C@H]3C(C[C@@]4(C)CCC[C@@H]5C6=C[C@H](CCC34C)OC6=CC(=O)OC5(C)C)O2)OC1=O (stereo partly specified),GI50,SN12K1,> 51.5 µM (inactive)
same,GI50,P388,> 51.5 µM (inactive)
same,GI50,P388/ADR,> 51.5 µM (inactive)
COc1ccc(C(=O)N2CCN(c3ccc([N+](=O)[O-])c(NCCc4ccc(OC)c(OC)c4)c3)CC2)cc1,IC50,[2],> 80 µM (inactive)
same,AC50,INS1,2.53 µM (active)
COc1cc(NCc2ccc3nc(N)nc(N)c3c2C)cc(OC)c1OC,GI50,SN12K1,0.025 µM (active)
same,GI50,P388,0.025 µM (active)
same,GI50,P388/ADR,0.025 µM (active)
CCSc1nnc(NC(=O)c2cccs2)s1,IC50,[5],15 µM (not active)
O=C(COc1ccc(F)cc1)NN1C(=O)CSC1=S,IC50,[5],1.42 µM (not active)
CC(C(=O)O)c1cnn(-c2ccccc2)c1-n1cccc1 (stereo unspecified),GI50,SN12K1,> 100 µM (inactive)
same,GI50,P388,> 100 µM (inactive)
same,GI50,P388/ADR,> 100 µM (inactive)
CC1(C)CC(=O)C2=C(C1)N1C(=C(C#N)C2c2ccc(Cl)cc2)N=C(N)c2ccccc21 (stereo unspecified),CC50,Vero,> 25 µM (active)
same,EC50,[6],> 260 µM (inactive)
CCc1ccc(N2C(=O)C(Cl)=C(Nc3ccc(C(=O)N4CCCC4)cc3)C2=O)cc1,IC50,[2],> 80 µM (inactive)
NNC(=O)Cc1cccnc1,AC50,Cytochrome P450 2C9,inconclusive
same,AC50,Cytochrome P450 1A2,0.631 µM (inconclusive)
CC1=NN(C(=O)c2ccc(C)cc2)C(=O)C1/N=N/c1ccccc1C(=O)O (stereo unspecified),GI50,SN12K1,> 100 µM (inactive)
same,GI50,P388,17.5 µM (inactive)
same,GI50,P388/ADR,> 100 µM (inactive)
CC(C)Nc1ccc(C(CC(N)=O)NC(=O)Cc2ccc(Br)cc2)cc1[N+](=O)[O-] (stereo unspecified),IC50,[2],> 80 µM (inactive)
Cc1cccc(C(=O)ON=C(N)c2cccc([N+](=O)[O-])c2)c1,AC50,Cytochrome P450 2C9,inconclusive
same,AC50,Cytochrome P450 2C19,7.08 µM (inconclusive)
same,AC50,Cytochrome P450 3A4,17.8 µM (inconclusive)
O=S(=O)(NC(=Nc1ccc(Cl)c(S(=O)(=O)Nc2ccccc2Cl)c1)c1ccc(F)cc1)c1ccccc1,IC50,[7],13.7 µM (active)
same,IC50,[8],80 µM (inactive)
CCOC(=O)N1CCN(C(=O)c2ccc(NS(C)(=O)=O)cc2)CC1,IC50,[5],> 50 µM (not active)
CN(N=Nc1[nH]cnc1C(N)=O)C1CCCCC1,AC50,Paired box protein Pax-8,6.78 µM (active)
CCSc1nnc(NC(=O)NC(CC)(C(F)(F)F)C(F)(F)F)s1,CC50,Vero,16.5 µM (active)
same,AC50,[9],7.03 µM (active)
N#CC1=C(N)OC2=C(CC/C2=C\c2ccccc2Cl)C1c1ccccc1Cl (stereo unspecified),CC50,Vero,22 µM (active)
same,EC50,[10],21.1 µM (active)
same,EC50,[11],18.3 µM (active)
Cc1cccc(-n2nc3c(c2NC(=O)c2ccc(Br)o2)CSC3)c1,IC50,[7],4.58 µM (active)
same,IC50,[8],17.5 µM (active)
CCCCOc1ccc(C(=O)OC(C)CN(C)C)cc1 (stereo unspecified),IC50,[5],> 50 µM (not active)
CNc1nc(C)cc(C)c1S(=O)(=O)c1ccc(Cl)cc1,AC50,Cytochrome P450 2C9,inconclusive
same,AC50,Cytochrome P450 1A2,28.2 µM (inconclusive)
CC(C)(C)c1ccc(C(=O)NNC(=S)NC(=O)c2cccnc2)cc1,EC50,[1],10.8 µM (active)
same,CC50,Vero,> 25 µM (active)
same,EC50,[3],18.2 µM (active)
same,EC50,[4],14.4 µM (active)
same,EC50,[12],0.47 µM (active)
same,EC50,Streptococcus,2.42 µM (active)
CCN(CC)c1ccc(/C=N/Nc2nc(C)cc(O)n2)cc1,AC50,Cytochrome P450 2C9,inconclusive
same,AC50,[13],0.456 µM (active)
same,AC50,Cytochrome P450 2C19,22.4 µM (inconclusive)
same,AC50,Cytochrome P450 2D6,12.6 µM (inconclusive)
same,AC50,Cytochrome P450 1A2,25.1 µM (inconclusive)
O=C1C(CO)=C[C@H](O)[C@H]2O[C@@H]12,GI50,SN12K1,116 µM (inactive)
same,GI50,P388,38.9 µM (inactive)
same,GI50,P388/ADR,29.9 µM (inactive)
CCCCC(=O)N/N=C(\C)CC(=O)Nc1cc(Cl)ccc1OC,AC50,Cytochrome P450 2C9,inconclusive
same,AC50,Cytochrome P450 1A2,12.6 µM (inconclusive)
CCCCCCCCCC[S+]([O-])CC(CO)NC(=O)/C=C/c1c(C)nc(O)nc1O (stereo unspecified),GI50,SN12K1,0.612 µM (active)
same,GI50,P388,0.0443 µM (active)
same,GI50,P388/ADR,2.25 µM (inactive)
COC(=O)CNC(=O)c1sc2ncn(CC(=O)Nc3ccc(C)c(Cl)c3)c(=O)c2c1C,IC50,[5],1.82 µM (not active)
Cc1cn(C2CC(O)C(CO)O2)c(=O)[nH]c1=O (stereo unspecified),GI50,SN12K1,857 µM (inactive)
same,GI50,P388,57.4 µM (inactive)
same,GI50,P388/ADR,91.8 µM (inactive)
CCOc1cc(/C=N/n2cnnc2)ccc1OS(=O)(=O)c1ccccc1,IC50,[5],> 50 µM (not active)
